Laboratory results reported in ChEMBL document CHEMBL4007392, “Modulating Mineralocorticoid Receptor with Non-steroidal Antagonists. New Opportunities for the Development of Potent and Selective Ligands without Off-Target Side Effects” (J Med Chem, 2017).
Values belong to the compound of their own block, whether it stands above or below them.

Key:
[1] = biological target: T1, Mineralocorticoid receptor (Homo sapiens, UniProt P08235); experiment: Antagonist activity at Gal4-fused human MR LBD (672 to 984 residues) expressed in HEK293T cells assessed as inhibition of aldosterone-induced transactivation activity after 24 hrs by luciferase reporter gene assay; type: cell-based, HEK-293T
T1 sequence (P08235 whole entry): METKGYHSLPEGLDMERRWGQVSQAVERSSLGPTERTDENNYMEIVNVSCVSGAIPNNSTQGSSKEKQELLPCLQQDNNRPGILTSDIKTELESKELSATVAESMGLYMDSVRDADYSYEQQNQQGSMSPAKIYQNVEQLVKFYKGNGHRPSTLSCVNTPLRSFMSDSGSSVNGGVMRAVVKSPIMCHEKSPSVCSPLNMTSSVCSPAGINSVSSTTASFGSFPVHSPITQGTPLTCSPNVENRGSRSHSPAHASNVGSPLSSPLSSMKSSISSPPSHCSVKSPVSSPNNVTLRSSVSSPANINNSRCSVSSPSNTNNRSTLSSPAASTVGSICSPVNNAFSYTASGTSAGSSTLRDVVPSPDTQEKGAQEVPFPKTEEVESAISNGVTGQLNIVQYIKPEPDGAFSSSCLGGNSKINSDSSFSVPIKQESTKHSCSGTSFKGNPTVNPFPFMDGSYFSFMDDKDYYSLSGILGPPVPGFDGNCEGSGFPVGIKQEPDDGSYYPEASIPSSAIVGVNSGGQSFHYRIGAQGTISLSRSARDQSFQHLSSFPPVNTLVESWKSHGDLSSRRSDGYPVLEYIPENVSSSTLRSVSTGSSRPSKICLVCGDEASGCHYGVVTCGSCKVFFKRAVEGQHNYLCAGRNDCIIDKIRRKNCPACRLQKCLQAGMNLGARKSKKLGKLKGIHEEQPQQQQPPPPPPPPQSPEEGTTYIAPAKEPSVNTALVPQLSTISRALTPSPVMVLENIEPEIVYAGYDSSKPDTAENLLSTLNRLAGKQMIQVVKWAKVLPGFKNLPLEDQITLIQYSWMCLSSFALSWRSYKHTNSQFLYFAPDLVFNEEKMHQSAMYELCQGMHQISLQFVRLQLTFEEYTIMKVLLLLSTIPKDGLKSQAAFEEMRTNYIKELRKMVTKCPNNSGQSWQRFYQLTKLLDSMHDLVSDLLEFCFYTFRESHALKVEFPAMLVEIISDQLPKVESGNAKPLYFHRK

[2] = test system: Rattus norvegicus; experiment: In vivo antagonist activity at MR in rat assessed as inhibition aldosterone-induced decrease in urinary sodium/potassium ratio at 30 mg/kg, po after 20 hrs; type: functional
[3] = biological target: T2, Mineralocorticoid receptor (Homo sapiens) (UniProt P08235); experiment: Antagonist activity at full-length human MR expressed in CHO-K1 cells assessed as inhibition of aldosterone-induced response measured after overnight incubation by luminesence analysis; type: cell-based
T2 sequence (whole entry): T1 sequence (P08235 whole entry)

[4] = Clearance in rat; type: ADME; settings: in vivo
[5] = Half life in rat; type: ADME; settings: in vivo
[6] = Half life in human liver microsomes; type: ADME, microsome
[7] = Half life in human hepatocytes; type: ADME, cell-based, Hepatocyte
[8] = test system: Rattus norvegicus; experiment: In vivo antagonist activity at MR in rat assessed as inhibition aldosterone-induced decrease in urinary sodium/potassium ratio at 30 mg/kg, po after 8 hrs; type: functional
[9] = test system: Rattus norvegicus; experiment: In vivo antagonist activity at MR in rat assessed as inhibition aldosterone-induced decrease in urinary sodium/potassium ratio at 3 mg/kg, po after 20 hrs; type: functional
[10] = biological target: T1, Mineralocorticoid receptor; experiment: Antagonist activity at Gal4-fused human MR LBD (734 to 985 residues) expressed in CHO-K1 cells after 5 to 6 hrs by luciferase reporter gene assay; type: cell-based
[11] = species: Homo sapiens; experiment: Ratio of IC50 for Gal4-fused human AR expressed in CHO-K1 cells to IC50 for Gal4-fused human MR expressed in CHO-K1 cells; type: cell-based
[12] = biological target: T1, Mineralocorticoid receptor; experiment: Displacement of [3H]-Aldosterone from MR overexpressed in human 293 cells measured after 2 hrs by Microbeta scintillation counting method; type: cell-based
[13] = biological target: T1, Mineralocorticoid receptor; experiment: Antagonist activity at human MR overexpressed in HEK293 cells assessed as inhibition of aldosterone-induced response measured after overnight incubation by luciferase reporter gene assay; type: cell-based
[14] = biological target: T1, Mineralocorticoid receptor; experiment: Antagonist activity at Gal4-fused MR LBD (unknown origin) expressed in human Huh7 cells assessed as inhibition of aldosterone-induced transcriptional activity after 3 hrs by luciferase reporter gene assay; type: cell-based
[15] = biological target: T1, Mineralocorticoid receptor; experiment: Displacement of [3H]-Aldosterone from MR overexpressed in human 293 cells measured after overnight incubation by TopCount method; type: cell-based
[16] = biological target: T3, Glucocorticoid receptor (Homo sapiens, UniProt P04150); experiment: Displacement of [3H]-dexamethasone from GR overexpressed in human 293 cells measured after overnight incubation by TopCount method; type: cell-based
T3 sequence (P04150 whole entry): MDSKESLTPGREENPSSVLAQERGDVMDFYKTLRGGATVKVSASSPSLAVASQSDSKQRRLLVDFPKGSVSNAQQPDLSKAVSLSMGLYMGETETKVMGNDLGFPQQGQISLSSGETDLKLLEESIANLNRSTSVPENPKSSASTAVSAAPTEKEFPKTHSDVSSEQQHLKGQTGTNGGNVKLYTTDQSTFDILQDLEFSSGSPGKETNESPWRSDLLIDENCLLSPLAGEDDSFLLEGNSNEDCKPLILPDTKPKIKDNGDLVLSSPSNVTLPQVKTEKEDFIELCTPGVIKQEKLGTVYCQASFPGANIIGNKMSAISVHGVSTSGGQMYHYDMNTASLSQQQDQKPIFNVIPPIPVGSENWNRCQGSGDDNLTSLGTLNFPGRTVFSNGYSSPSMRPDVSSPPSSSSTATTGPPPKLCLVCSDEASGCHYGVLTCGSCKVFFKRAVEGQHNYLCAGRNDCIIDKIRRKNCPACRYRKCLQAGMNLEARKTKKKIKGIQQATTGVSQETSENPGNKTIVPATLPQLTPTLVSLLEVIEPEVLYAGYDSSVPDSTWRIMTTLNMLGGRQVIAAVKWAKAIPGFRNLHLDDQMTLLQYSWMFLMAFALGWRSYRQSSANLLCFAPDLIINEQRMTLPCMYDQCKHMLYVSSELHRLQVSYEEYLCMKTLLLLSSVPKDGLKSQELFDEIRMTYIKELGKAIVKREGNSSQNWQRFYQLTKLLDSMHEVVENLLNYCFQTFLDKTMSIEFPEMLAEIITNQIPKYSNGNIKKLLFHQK

[17] = biological target: T1, Mineralocorticoid receptor; experiment: Displacement of [3H]-cortisol from MR overexpressed in human 293 cells measured after 2 hrs by Microbeta scintillation counting method; type: cell-based

SMILES: CC(=O)Oc1ccc(CCc2ccc3c(c2)NC(=O)CO3)c(C)c1
IC50 [1]: < 2 nM

SMILES: CC(=O)S[C@@H]1CC2=CC(=O)CC[C@]2(C)[C@H]2CC[C@@]3(C)[C@@H](CC[C@@]34CCC(=O)O4)[C@H]12 [SPIRONOLACTONE]
inhibition in vivo at 30 mg/kg [2]: < 20%

SMILES: COC(=O)[C@@H]1CC2=CC(=O)CC[C@]2(C)[C@@]23O[C@@H]2C[C@@]2(C)[C@@H](CC[C@@]24CCC(=O)O4)[C@H]13 [EPLERENONE]
inhibition in vivo at 30 mg/kg [8]: 8%

SMILES: Cc1c(C(=O)Nc2ccc(S(C)(=O)=O)cc2)cn(CCO)c1-c1ccccc1C(F)(F)F (single isomer, unassigned; atropisomer 2)
inhibition in vivo at 3 mg/kg [9]: 56%

SMILES: CCOC(=O)C1=C(C)NC(C)=C(C(C)=O)[C@H]1c1cccc2c(=O)cc(C)oc12
IC50 [10]: 28 to 43 nM
Ratio IC50 [11]: 160

SMILES: C[C@H](CN1CCOCC1)n1/c(=N\C#N)[nH]c2cc(/C=C3\c4ccccc4COc4cc(F)ccc43)ccc21
Ki [12]: 0.4 nM
IC50 [13]: 21 nM

SMILES: C[C@@H]1CN(c2ccc3c(n2)NC(=O)CO3)CCO1
IC50 [14]: 3050 nM

SMILES: O=c1[nH]c2cc(/C=C3\c4ccccc4COc4cc(F)ccc43)ccc2n1[C@@H]1C[C@@H]2COCCN2C1
Ki [17]: 9 nM

Now from value to compound:

Inhibitory potency [3]: 4 nM
clearance [4]: 24 mL/min/kg
half-life [5]: 5.3 h
half-life [6]: 1.2 h
half-life [7]: > 1.5 h
SMILES: CCC(O)C(CC)(c1ccc(C(F)(F)F)cc1)n1ncc2c(NS(C)(=O)=O)cccc21 (stereo not given)

Inhibitory potency [3]: 11 nM
clearance [4]: 3.8 mL/min/kg
half-life [5]: 9.9 h
half-life [6]: 1.03 h
half-life [7]: > 1.5 h
SMILES: CCC(c1ccc(C(F)(F)F)cc1)(C(O)C(F)F)n1ncc2c(NS(C)(=O)=O)cccc21 (stereo not given)

IC50 [14]: 33.4 nM
SMILES: C[C@@H]1CN(c2ccc3c(c2)NC(=O)CO3)[C@H](c2ccccc2F)CO1

Ki [15]: ≤ 500 nM
Ki [16]: ≤ 500 nM
SMILES: Cc1ccc(C(C)(c2c[nH]c3c(NS(C)(=O)=O)cccc23)C2CC2)cc1 (stereo not given)

Ki [15]: ≤ 500 nM
Ki [16]: ≤ 500 nM
SMILES: CC(c1ccccc1)(c1c[nH]c2c(NS(C)(=O)=O)cccc12)C1CC1 (stereo not given)
